Results taken from patent US20200062710A1, “Method For Producing 3-(Pyridyl-2-Amino)Propionitrile And Analogues Thereof” (Nipppon Kayaku Kabushiki Kaisha, priority 2016, published 2020).

Experiments:
[1] = system: Rice Brown Planthopper (Nilaparvata lugens); test: Pest control test (stem and leaf soaking treatment) to rice brown planthopper; type: in vivo; conditions: 800 ppm, rice seedlings soaked, 25° C., five days after treatment
Procedure: Biological Test Example 2: Pest Control Test (Stem and Leaf Soaking Treatment) to Rice Brown Planthopper (Nilaparvata lugens)
Ten rice seedlings were soaked in 20 mL of the test compound solution diluted to 800 ppm and air-dried. After air drying, the rice seedings were hold in a glass cylinder (inner diameter 4.5 cm×14 cm) with urethane and stood on the plastic cup in which 40 mL of water was put. The […] larva of rice brown planthopper was released there, covered with medicine package, and kept in a constant temperature room at 25° C. In five days after treatment, life and death were observed and the mortality was calculated.

[2] = system: Twospotted Spider Mite (Tetranychus urticae); test: Pest control test (leaf soaking treatment) to twospotted spider mite; type: in vivo; conditions: 800 ppm, bean leaf with eggs soaked about 30 seconds, 25° C., seven days after treatment
Procedure: Biological Test Example 1: Pest Control Test (Leaf Soaking Treatment) to Twospotted Spider Mite (Tetranychus urticae)
A bean leaf was cut to a diameter of 3.5 cm and placed on absorbent cotton moistened with water. Five adult females of the twospotted spider mite were released on the bean leaf and laid eggs for 24 hours, and then the adults were removed. This bean leaf was soaked for about 30 seconds in 20 mL of the dilution solution of the test compound diluted to 800 ppm. After air-drying, the bean leaf was put in a plastic cup together with absorbent cotton, covered, and kept in a constant temperature room at 25° C. In seven days after treatment, life and death were observed and the ovicidal rate was calculated.

Row | SMILES | control effect (mortality) [1] | pest control effect (ovicidal rate) [2]
1 | N#CCCNc1ccccn1 [compound (1′), 3-(Pyridyl-2-amino)propionitrile] | 50% | 
2 | N#CCCN(C=O)c1ccccn1 [compound (4′), N-(2-cyanoethyl)-N-(2-pyridyl)formamide] |  | 100%
